Tests used:
Format in all cases: in vivo, rat
HSP70 = HSP70 induction in the heart after oral administration (Western blotting), Example 1
Description: Male Sprague-Dawley rats (220-250 g) were anesthetized with pentobarbital (20 mg/kg, i.p.). They were subjected to whole-body hyperthermia by soaking for 10 minutes in a bath in which the water temperature was maintained at 43° C. (Heat Stress Group), with their heads on pillows to avoid aspiration of water. rectal temperatures were measured as body temperatures rose throughout the whole-body hyperthermia.
(§1) An emulsion of 100% by weight of geranylgeranylacetone (GGA) with 5% by weight of gum arabic and 0.008% by weight of tocopherol was given orally to the rats described above. The oral dosages were 50 mg/kg, 100 mg/kg, 200 mg/kg and 400 mg/kg (GGA groups). […] The vehicle was administered orally to the Control Group.
To examine the time-dependent expression of HSP70, rats were killed by deep anesthesia with pentobarbital (50 mg/kg, i.v.) 6, 12, 24 and 48 hours after administration of the GGA or vehicle or 6, 12, 24 and 48 hours after heat stress.
(§2) Next, the hearts were removed from the killed rats and frozen in liquid nitrogen.
(§3) Western blotting was then performed (Maloyan A, Palmon A, Horowitz M. Heat acclimation increases the basal HSP70 level and alters its production dynamics during heat stress. Am J Physiol 1999; 276:R1506-R1515). The frozen hearts were homogenized with SDS (sodium dodecyl sulfate) buffer, centrifuged and boiled.
(§4) The total protein concentration of the myocardium was quantified by the Bradford method (Bradford M M. A rapid and sensitive method for quantitation of microgram quantities of protein utilizing the principle of protein-dye binding. Anal Biochem 1976; 72:248-254). The prepared hearts were then diluted in electrolyte buffer. Total protein in each heart was subjected to electrophoresis on 8.5% SDS-Polyacrylamide gel (SDS-PAGE), and transferred to a PVDF (polyvinylidene fluoride) membrane. After blocking with 0.5% nonfat milk, the PVDF membranes were incubated with antibodies. The proteins were detected by exposing the ECL cells with Hyperfilm (Amersham Pharmacia, Buckinghamshire, UK). Based on this, the amount of proteins on the immunoblots was quantified using National Institutes of Health (NIH) imaging software.

HSP27 = HSP27 induction in the heart after oral administration (Western blotting); details: oral 200 mg/kg, 24 hours after administration, FIG. 3(A)
Description: as §1, §2, §3
as §4, with “Total protein in each heart was subjected to electrophoresis on 8.5% SDS-Polyacrylamide gel (SDS-PAGE), and transferred to a PVDF (polyvinylidene fluoride) membrane. After blocking with 0.5% nonfat milk, the PVDF membranes were incubated with antibodies.” left out, “software. […]” for “software.”

isolated perfused heart = assay: Isolated perfused heart experiments (Langendorff, no-flow global ischemia/reperfusion), Example 1; details: for amount of creatine kinase (CK) released during reperfusion versus Control Group: 30 min reperfusion, FIG. 6
Description: As mentioned above, 24 hours after administration of 200 mg/kg of GGA or the vehicle, rats were heparinized (500 IU/kg, i.p.) and anesthetized with pentobarbital (50 mg/kg, i.p.).
Each heart was isolated and reperfused using the Langendorff method with Krebs-Henseleit buffer (pH 7.4, [in mM] 118 NaCl, 4.7 KCl, 2.5 CaCl2, 1.2 MgSO4, 1.2 KH2PO4, 25.0 Na2HCO3, 11.0 glucose) equilibrated with a 95% O2, 5% CO2 gas mixture at 36.5° C., 75 mmHg (1.0×10^4 Pa).
A water-filled latex balloon was inserted through the mitral orifice into the left ventricle, and the left ventricular end diastolic pressure (LVEDP) was adjusted to 0-5 mmHg (0-667 Pa). During the first 10 minutes of constant pressure reperfusion, the perfusion flow rate was determined for each heart, and the hearts were then perfused at a determined perfusion rate using a microtube pump, during which time each heart was covered with water-jacketed glassware and humidity was maintained at 90% or more.
Normothermic no-flow global ischemia was performed for 20, 40 and 60 minutes, followed by reperfusion for 30 minutes. The coronary effluent from the 30-minute reperfusion period was collected for measurement of released creatine kinase (CK). The ratio of released CK to heart weight was analyzed by unpaired t-test.
The peak position and negative first derivaties of left ventricular pressure (dP/dt max and dP/dt min) were monitored using a pressure transducer. Left ventricular developed pressure (LVDP) was defined as the difference between left ventricular systolic and diastolic pressure. Coronary perfusion pressure (CPP) was calculated as the hydraulic pressure measured at the level of aortic cannulation. Changes in LVDP, CPP and dP/dt were analyzed by two-way analysis of variance (ANOVA), followed by the Bonferroni/Dunn test.
The LVDP, CPP and electrocardiogram were continuously recorded on a polygraph recorder (WS-681G, Nihon Koden, Tokyo), and stored on a PCM data recorder (RD-111T, TEAC, Tokyo) for later analysis.

PKC (α, β, γ and ε) = assay: Translocation of PKC isoforms α, β, γ and ε in particulate and cytosolic heart fractions (Western immunoblotting); details: 24 h after GGA 200 mg/kg oral or vehicle; chelerythrine 5 mg/kg i.v. pretreatment, FIG. 10
[1] = oral, 24 hours after administration, FIG. 2

## CC(=O)CCC=C(C)CCC=C(C)CCC=C(C)CCC=C(C)C [GGA, 6, 10, 14, 18-tetramethyl-5,9, 13, 17-nonadecatetraen-2-one]
HSP70; oral 0-400 mg/kg, hearts removed 24 hours after administration, FIG. 2
  detected (induced) amount of HSP70 in the heart versus dosage: increased as the dosage increased
HSP70; oral 200 mg/kg, 48 hours after administration, FIG. 1
  detected amount of HSP70 in the heart after 48 hours: decreased
HSP70; oral 200 mg/kg, FIG. 1
  time at which the detected (induced) amount of HSP70 peaked: 24 h
  time from which HSP70 was detected in the heart: about 6 hours
HSP70; [1]
  detected amount of HSP70 above 400 mg/kg: No increase in detected amount was seen
  dosage at which HSP70 induction peaked: 200 mg/kg
HSP27
  HSP27 expression versus vehicle: no obvious difference
Isolated perfused heart; 24 h after oral 200 mg/kg, printed 'after about 20-40 minutes of reperfusion', FIG. 5
  LVDP and dP/dt during reperfusion versus Control Group: remarkably better
Isolated perfused heart; 24 h after oral 200 mg/kg, printed 'after about 60 minutes of reperfusion', FIG. 5
  functional recovery (LVDP, dP/dt) versus Control Group: no great difference
Isolated perfused heart; ischemic period 20 or 40 minutes
  amount of creatine kinase (CK) released during reperfusion versus Control Group: much less
Isolated perfused heart; ischemic period 60 minutes
  amount of creatine kinase (CK) released during reperfusion versus Control Group: no great difference
PKC (α, β, γ and ε)
  PKC isoforms α, β, γ and ε in cytosolic and particulate fractions: not influenced

From patent US6846845B2, “Heat shock protein inducer” (Eisai Co., Ltd., priority 2002, dated 2005)
